Consider two compounds from publication PMC12457599, “Targeting Acinetobacter baumannii lipase by coniferous species through metabolomics supported approach” (Scientific Reports, 2025).

Assay [1] relates to Staphylococcus aureus lipases. Set-up: method as in PMID 17559400. Conditions: cited from earlier work.
Assay [2] concerns A. baumannii strain (AB5075). Description: Tetrazolium/formazan (TTC) assay, effective inhibitory concentration. In kind it is cell-based, Acinetobacter baumannii.
The test system of another assay is A. baumannii (AB5075). Description: Growth curve assay.
For assay [3], the system named is A. baumannii strain (AB5075). Description: Broth microdilution MIC. Particulars: Acinetobacter baumannii, 24 h.

With `CC(C)=CCC/C(C)=C/CC/C(C)=C/CO` [Farnesol], the half-inhibitory concentration (IC50) in assay [1] is 570 µM.

`CCCCCCCCCCC[C@@H](C[C@@H]1OC(=O)[C@H]1CCCCCC)OC(=O)[C@H](CC(C)C)NC=O` [Orlistat, orlistat] showed an EIC in assay [2] (TTC assay, lowest concentration preventing red color formation, tested 420–640 µg/mL) of 640 µg/mL. Also, the “direct antimicrobial activity against A. baumannii” value in assay [2] (summary of MIC and EIC) is “minimal direct antimicrobial activity”. Further, the “growth extent versus DMSO” value is listed as “not” in the assay with A. baumannii (AB5075) (64 µg/mL); “significant reduction in growth extent” in the assay on A. baumannii (AB5075) (128 µg/mL, mid-logarithmic and early stationary phases). The minimal inhibitory concentration (MIC) in assay [3] is > 128 µg/mL.
